In PubChem BioAssay AID1963860 (Molecular Pharmacology Branch, DTP, NCI, 2024):

System: CN0375-F725-PDC KRAS spheroid viability
Experiment: Anticancer human tumor CN0375-F725-PDC patient-derived colon carcinoma cell line growth inhibition [KRAS2]
Conditions: spheroids with HUVEC and MSC; for viability, T/C: stronger effect = lower value
Outline: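 KRAS-mutant tumor cells were grown as spheroids with HUVEC endothelial cells and human MSCs as stroma. Targeted agents were tested alone and with KRAS pathway inhibitors. Doses started at or near clinical Cmax, or 10 microM, descending half-log.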

[1] = curve of first compound, second compound 0.1 µM
[2] = curve of first compound, second compound 0.316 µM
[3] = curve of first compound, second compound 1 µM
[4] = curve of first compound, second compound 3.16 µM
[5] = curve of first compound, second compound 10 µM
[6] = second compound 0.1 µM, first compound 0.000316 µM
[7] = second compound 0.1 µM, first compound 0.001 µM
[8] = second compound 0.1 µM, first compound 0.00316 µM
[9] = second compound 0.1 µM, first compound 0.01 µM
[10] = second compound 0.1 µM, first compound 0.0316 µM
[11] = second compound 0.1 µM, first compound 0.1 µM
[12] = second compound 0.316 µM, first compound 0.000316 µM
[13] = second compound 0.316 µM, first compound 0.001 µM
[14] = second compound 0.316 µM, first compound 0.00316 µM
[15] = second compound 0.316 µM, first compound 0.01 µM
[16] = second compound 0.316 µM, first compound 0.0316 µM
[17] = second compound 0.316 µM, first compound 0.1 µM
[18] = second compound 1 µM, first compound 0.000316 µM
[19] = second compound 1 µM, first compound 0.001 µM
[20] = second compound 1 µM, first compound 0.00316 µM
[21] = second compound 1 µM, first compound 0.01 µM
[22] = second compound 1 µM, first compound 0.0316 µM
[23] = second compound 1 µM, first compound 0.1 µM
[24] = second compound 3.16 µM, first compound 0.000316 µM
[25] = second compound 3.16 µM, first compound 0.001 µM
[26] = second compound 3.16 µM, first compound 0.00316 µM
[27] = second compound 3.16 µM, first compound 0.01 µM
[28] = second compound 3.16 µM, first compound 0.0316 µM
[29] = second compound 3.16 µM, first compound 0.1 µM
[30] = second compound 10 µM, first compound 0.0316 µM
[31] = second compound 10 µM, first compound 0.1 µM
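Further: spheroids exposed to agents for 7 days.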

Structure (SMILES): CC(C)n1nc(-c2ccc3oc(N)nc3c2)c2c(N)ncnc21 + COc1cc2nc(C)nc(NC(C)c3cc(N)cc(C(F)(F)F)c3)c2cc1OC1CCOC1
- IC50 [1]: 59.1 nM
- IC50 [2]: 49 nM
- IC50 [3]: 36.5 nM
- IC50 [4]: 25.9 nM
- IC50 [5]: < 0.316 nM
- viability, T/C [6]: 101%
- viability, T/C [7]: 93.6%
- viability, T/C [8]: 78%
- viability, T/C [9]: 70.4%
- viability, T/C [10]: 54.5%
- viability, T/C [11]: 45.5%
- viability, T/C [12]: 95.1%
- viability, T/C [13]: 89.7%
- viability, T/C [14]: 77.6%
- viability, T/C [15]: 66%
- viability, T/C [16]: 54.2%
- viability, T/C [17]: 43.7%
- viability, T/C [18]: 90.5%
- viability, T/C [19]: 88.6%
- viability, T/C [20]: 76%
- viability, T/C [21]: 66.4%
- viability, T/C [22]: 50.2%
- viability, T/C [23]: 42.1%
- viability, T/C [24]: 85.2%
- viability, T/C [25]: 80.8%
- viability, T/C [26]: 72.9%
- viability, T/C [27]: 59%
- viability, T/C [28]: 48.5%
- viability, T/C [29]: 40.8%
- viability, T/C (second compound 10 µM, first compound 0.000316 µM): 13.7%
- viability, T/C (second compound 10 µM, first compound 0.001 µM): 14.8%
- viability, T/C (second compound 10 µM, first compound 0.00316 µM): 25.4%
- viability, T/C (second compound 10 µM, first compound 0.01 µM): 22%
- viability, T/C [30]: 18.1%
- viability, T/C [31]: 13.7%

Structure (SMILES): Cn1ncnc1[C@H]1c2n[nH]c(=O)c3cc(F)cc(c23)N[C@@H]1c1ccc(F)cc1 + C=CC(=O)N1CCN(c2nc(OCC3CCCN3C)nc3c2CCN(c2cccc4cccc(C)c24)C3)CC1CC#N
- IC50 (curve of first compound, second compound 0.0316 µM): > 100 nM
- IC50 [1]: > 100 nM
- IC50 [2]: > 100 nM
- IC50 [3]: > 100 nM
- IC50 [4]: < 0.316 nM
- viability, T/C (second compound 0.0316 µM, first compound 0.000316 µM): 99.6%
- viability, T/C (second compound 0.0316 µM, first compound 0.001 µM): 105%
- viability, T/C (second compound 0.0316 µM, first compound 0.00316 µM): 99.2%
- viability, T/C (second compound 0.0316 µM, first compound 0.01 µM): 103%
- viability, T/C (second compound 0.0316 µM, first compound 0.0316 µM): 97.6%
- viability, T/C (second compound 0.0316 µM, first compound 0.1 µM): 99.6%
- viability, T/C [6]: 106%
- viability, T/C [7]: 105%
- viability, T/C [8]: 96.9%
- viability, T/C [9]: 94.3%
- viability, T/C [10]: 100%
- viability, T/C [11]: 91.8%
- viability, T/C [12]: 95.9%
- viability, T/C [13]: 107%
- viability, T/C [14]: 100%
- viability, T/C [15]: 95.9%
- viability, T/C [16]: 101%
- viability, T/C [17]: 87%
- viability, T/C [18]: 97.6%
- viability, T/C [19]: 99%
- viability, T/C [20]: 93.7%
- viability, T/C [21]: 87.7%
- viability, T/C [22]: 90.9%
- viability, T/C [23]: 86.2%
- viability, T/C [24]: 14.6%
- viability, T/C [25]: 13.1%
- viability, T/C [26]: 20.2%
- viability, T/C [27]: 16.1%
- viability, T/C [28]: 14.4%
- viability, T/C [29]: 14.3%

Structure (SMILES): CC(C)NCC(C(=O)N1CCN(c2ncnc3c2C(C)CC3O)CC1)c1ccc(Cl)cc1 (centres undefined) + C=CC(=O)N1CCN(c2nc(=O)n(-c3c(C)ccnc3C(C)C)c3nc(-c4c(O)cccc4F)c(F)cc23)C(C)C1
- IC50 [1]: > 10000 nM
- IC50 [2]: > 10000 nM
- IC50 [3]: > 10000 nM
- IC50 [4]: > 10000 nM
- IC50 [5]: > 10000 nM
- viability, T/C [10]: 108%
- viability, T/C [11]: 106%
- viability, T/C (second compound 0.1 µM, first compound 0.316 µM): 91.4%
- viability, T/C (second compound 0.1 µM, first compound 1 µM): 88.9%
- viability, T/C (second compound 0.1 µM, first compound 3.16 µM): 87.8%
- viability, T/C (second compound 0.1 µM, first compound 10 µM): 80.1%
- viability, T/C [16]: 102%
- viability, T/C [17]: 105%
- viability, T/C (second compound 0.316 µM, first compound 0.316 µM): 92.4%
- viability, T/C (second compound 0.316 µM, first compound 1 µM): 89%
- viability, T/C (second compound 0.316 µM, first compound 3.16 µM): 89.6%
- viability, T/C (second compound 0.316 µM, first compound 10 µM): 75.9%
- viability, T/C [22]: 103%
- viability, T/C [23]: 110%
- viability, T/C (second compound 1 µM, first compound 0.316 µM): 98.8%
- viability, T/C (second compound 1 µM, first compound 1 µM): 86.3%
- viability, T/C (second compound 1 µM, first compound 3.16 µM): 84.4%
- viability, T/C (second compound 1 µM, first compound 10 µM): 77%
- viability, T/C [28]: 106%
- viability, T/C [29]: 111%
- viability, T/C (second compound 3.16 µM, first compound 0.316 µM): 101%
- viability, T/C (second compound 3.16 µM, first compound 1 µM): 87.7%
- viability, T/C (second compound 3.16 µM, first compound 3.16 µM): 84.2%
- viability, T/C (second compound 3.16 µM, first compound 10 µM): 73%
- viability, T/C [30]: 101%
- viability, T/C [31]: 95.7%
- viability, T/C (second compound 10 µM, first compound 0.316 µM): 88.7%
- viability, T/C (second compound 10 µM, first compound 1 µM): 72%
- viability, T/C (second compound 10 µM, first compound 3.16 µM): 71.9%
- viability, T/C (second compound 10 µM, first compound 10 µM): 55.7%

Structure (SMILES): Cn1ncnc1[C@H]1c2n[nH]c(=O)c3cc(F)cc(c23)N[C@@H]1c1ccc(F)cc1
- viability, T/C (compound 0.000316 µM): 107% [middle of 5 runs]
- viability, T/C (compound 0.001 µM): 102% [middle of 5 runs]
- viability, T/C (compound 0.00316 µM): 99.8% [middle of 5 runs]
- viability, T/C (compound 0.01 µM): 101% [middle of 5 runs]
- viability, T/C (compound 0.0316 µM): 102% [middle of 5 runs]
- viability, T/C (compound 0.1 µM): 96% [middle of 5 runs]
- IC50 (curve of compound): > 100 nM

Structure (SMILES): CC(=O)OC12COC1CC(O)C1(C)C(=O)C(O)C3=C(C)C(OC(=O)C(O)C(NC(=O)OC(C)(C)C)c4ccccc4)CC(O)(C(OC(=O)c4ccccc4)C21)C3(C)C (centres undefined)
- viability, T/C (compound 0.01 µM): 101% [middle of 5 runs]
- viability, T/C (compound 0.0316 µM): 97.7% [middle of 5 runs]
- viability, T/C (compound 0.1 µM): 89.3% [middle of 5 runs]
- viability, T/C (compound 0.316 µM): 89% [middle of 5 runs]
- viability, T/C (compound 1 µM): 83.2% [middle of 5 runs]
- viability, T/C (compound 3.16 µM): 80.8% [middle of 5 runs]
- IC50 (curve of compound): > 3160 nM
